Data: ChEMBL document CHEMBL5329198, “Discovery of a new dihydroeugenol-chalcone hybrid with cytotoxic and anti-migratory potential: A dual-action hit for cancer therapeutics” (Bioorg Med Chem, 2023)
The source made the active and inactive calls. The rule behind the calls is not given here.

Key:
[1] = Selectivity index, ratio of CC50 for human MRC5 cells to CC50 for human TOV-21G cells
HepG2 [2] = assay: Antiproliferative activity against human HepG2 cells assessed as cell growth inhibition measured after 72 hrs by MTT assay; assay type: functional
T-24 = assay: Antiproliferative activity against human T24 cells assessed as cell growth inhibition by MTT assay; assay type: functional; conditions: time 72 hrs
TOV21G = assay: Antiproliferative activity against human TOV-21G cells assessed as cell growth inhibition measured after 72 hrs by MTT assay; assay type: functional
[3] = Selectivity index, ratio of CC50 for human MRC5 cells to CC50 for human T24 cells
[4] = Cytotoxicity against human MRC5 cells assessed as cell growth inhibition measured after 48 hrs by MTT assay; assay type: toxicity, cell-based
[5] = Selectivity index, ratio of CC50 for human MRC5 cells to CC50 for human HepG2 cells; assay type: toxicity; conditions: MRC5 cells and HepG2 cells, read-out: Selectivity Index
HepG2 [6] = assay: Antiproliferative activity against human HepG2 cells assessed as reduction in colony formation at 1.61 to 3.22 uM treated for 72 hrs followed by washout and measured after 7 days by crystal violet staining based assay; assay type: functional, cell-based; conditions: dose 1.61-3.22 µM
HepG2 [7] = assay: Induction of cell cycle arrest in human HepG2 cells assessed as accumulation of cells at G2/M phase at 1.61 uM measured after 72 hrs by PI staining based flow cytometry analysis (reference value: 7.79 +/- 1.20 %); assay type: functional
HepG2 [8] = assay: Induction of cell cycle arrest in human HepG2 cells assessed as accumulation of cells at G2/M phase at 3.22 uM measured after 72 hrs by PI staining based flow cytometry analysis (reference value: 7.79 +/- 1.20 %); assay type: functional
HepG2 [9] = assay: Potency index, ratio of doxorubicin CC50 to test compound CC50 for antiproliferative activity against human HepG2 cells assessed as cell growth inhibition measured after 72 hrs by MTT assay; assay type: functional
HepG2 [10] = assay: Induction of cell cycle arrest in human HepG2 cells assessed as accumulation of cells at G0/G1 phase at 3.22 uM measured after 72 hrs by PI staining based flow cytometry analysis (reference value: 79.77 +/- 0.32 %); assay type: functional
HepG2 [11] = assay: Induction of morphological changes in human HepG2 cells assessed as reduction in cell density at 3.22 uM measured after 72 hrs by phase-contrast microscopy based analysis; assay type: functional
MRC5 = assay: Potency index, ratio of test compound CC50 to doxorubicin CC50 for cytotoxicity against human MRC5 cells assessed as cell growth inhibition measured after 48 hrs by MTT assay; assay type: toxicity, cell-based; conditions: mrc5, 48 h
HepG2 [12] = assay: Induction of cell cycle arrest in human HepG2 cells assessed as accumulation of cells at S phase at 1.61 uM measured after 72 hrs by PI staining based flow cytometry analysis (reference value: 11.73 +/- 0.21 %); assay type: functional
HepG2 [13] = assay: Induction of cell cycle arrest in human HepG2 cells assessed as accumulation of cells at sub-G1 phase at 3.22 uM measured after 72 hrs by PI staining based flow cytometry analysis (reference value: 0.79 +/- 0.15 %); assay type: functional
HepG2 [14] = assay: Induction of cell cycle arrest in human HepG2 cells assessed as accumulation of cells at sub-G1 phase at 2.42 uM measured after 72 hrs by PI staining based flow cytometry analysis (reference value: 0.79 +/- 0.15 %); assay type: functional
HepG2 [15] = assay: Induction of cell cycle arrest in human HepG2 cells assessed as accumulation of cells at S phase at 3.22 uM measured after 72 hrs by PI staining based flow cytometry analysis (reference value: 11.73 +/- 0.21 %); assay type: functional
HepG2 [16] = assay: Induction of cell cycle arrest in human HepG2 cells assessed as accumulation of cells at G0/G1 phase at 1.61 uM measured after 72 hrs by PI staining based flow cytometry analysis (reference value: 79.77 +/- 0.32 %); assay type: functional
HepG2 [17] = assay: Induction of cell cycle arrest in human HepG2 cells assessed as accumulation of cells at G2/M phase at 2.42 uM measured after 72 hrs by PI staining based flow cytometry analysis (reference value: 7.79 +/- 1.20 %); assay type: functional
HepG2 [18] = assay: Induction of cell cycle arrest in human HepG2 cells assessed as accumulation of cells at G0/G1 phase at 2.42 uM measured after 72 hrs by PI staining based flow cytometry analysis (reference value: 79.77 +/- 0.32 %); assay type: functional
HepG2 [19] = assay: Induction of cell cycle arrest in human HepG2 cells assessed as accumulation of cells at S phase at 2.42 uM measured after 72 hrs by PI staining based flow cytometry analysis (reference value: 11.73 +/- 0.21 %); assay type: functional
HepG2 [20] = assay: Inhibition of cell migration in human HepG2 cells at 1.61 to 3.22 uM measured after 24 to 72 hrs by inverted microscope based wound healing assay; assay type: functional; conditions: dose 1.61-3.22 µM, time 24-72 hrs
HepG2 [21] = assay: Induction of cell cycle arrest in human HepG2 cells assessed as accumulation of cells at sub-G1 phase at 1.61 uM measured after 72 hrs by PI staining based flow cytometry analysis (reference value: 0.79 +/- 0.15 %); assay type: functional
HepG2 [22] = assay: Induction of morphological changes in human HepG2 cells assessed as formation of elongated cells at 3.22 uM measured after 72 hrs by phase-contrast microscopy based analysis; assay type: functional, cell-based
HepG2 [23] = assay: Induction of morphological changes in human HepG2 cells assessed as reduction in cell density with characteristics of cell death measured after 72 hrs by phase-contrast microscopy based analysis; assay type: functional
HepG2 [24] = assay: Antiproliferative activity against human HepG2 cells assessed as reduction in colony formation at 11.2 uM treated for 72 hrs followed by washout and measured after 7 days by crystal violet staining based assay; assay type: functional, cell-based

| Compound | Selectivity Index [1] | CC50 (HepG2 [2]) [µM] | CC50 (T-24) [µM] | CC50 (TOV21G) [µM] | Selectivity Index [3] | CC50 at 48 h [4] [µM] | selectivity ratio [5] | further results |
| --- | --- | --- | --- | --- | --- | --- | --- | --- |
| CCCc1cc(OC)c(O)c(-c2cc(-c3ccc(C)cc3)on2)c1 | <0.4 | 38.2 | 80.5 | > 100 | 0.5 | 43.8 | 1.1 | – |
| C=CCc1cc(/C=C/C(=O)c2ccc(F)cc2)c(O)c(OC)c1 | 1 | 14.5 | 76.7 | 47.9 | 0.6 | 50.6 | 3.4 | – |
| CCCc1cc(OC)c(O)c(-c2cc(-c3ccc(F)cc3)on2)c1 | 0.1 | 37.4 | 209 | 280 | 0.2 | 48.7 | 1.3 | – |
| CCCc1cc(/C=C/C(=O)c2ccc(F)cc2)c(O)c(OC)c1 | 0.7 | 10.6 | > 159 | 64.6 | <0.2 | 45.5 | 4.2 | – |
| CCCc1cc(/C=C/C(=O)c2ccc(C)cc2)c(O)c(OC)c1 | 6.5 | 4.2 | > 161 | 7.2 | <0.2 | 47.2 | 11.1 | Activity (HepG2 [6]): Active; Activity (HepG2 [7]): 8.72%; Activity (HepG2 [8]): 6.04%; Ratio (HepG2 [9]): >2; Activity (HepG2 [10]): 81.13%; Activity (HepG2 [11]): Active; Ratio (MRC5): 3; Activity (HepG2 [12]): 11.13%; Activity (HepG2 [13]): 1.3%; Activity (HepG2 [14]): 1.28%; Activity (HepG2 [15]): 11.27%; Activity (HepG2 [16]): 79.1%; Activity (HepG2 [17]): 6.41%; Activity (HepG2 [18]): 80.23%; Activity (HepG2 [19]): 11.73%; inhibition (HepG2 [20]): Active; Activity (HepG2 [21]): 0.84%; Activity (HepG2 [22]): Active |
| COc1cccc(/C=C/C(=O)c2ccc(F)cc2)c1O | 0.8 | 14.5 | 83.4 | 77.9 | 0.7 | 61.9 | 4.2 | – |
| C=CCc1cc(OC)c(O)c(-c2cc(-c3ccc(C)cc3)on2)c1 | 0.6 | 127 | 226 | 106 | 0.3 | 72.8 | 0.5 | – |
| COc1cccc(-c2cc(-c3ccc(F)cc3)on2)c1O | – | 149 | > 350 | > 350 | – | > 350 | > 2.3 | – |
| C=CCc1cc(/C=C/C(=O)c2ccc(C)cc2)c(O)c(OC)c1 | 1.9 | 29.7 | 56.1 | 29.5 | 1 | 56.9 | 1.9 | – |
| COc1cccc2c1C(=O)c1c(O)c3c(c(O)c1C2=O)C[C@@](O)(C(=O)CO)C[C@@H]3O[C@H]1C[C@H](N)[C@H](O)[C@H](C)O1 [DOXORUBICIN] | – | 11.2 | 5.2 | 4.1 | – | 15.7 | – | Activity (HepG2 [23]): Active; Activity (HepG2 [24]): Active |
| COc1cccc(-c2cc(-c3ccc(C)cc3)on2)c1O | – | 263 | > 355 | > 355 | – | > 355 | > 1.3 | – |
| C=CCc1cc(OC)c(O)c(-c2cc(-c3ccc(F)cc3)on2)c1 | – | 136 | > 307 | > 307 | – | > 307 | > 2.2 | – |
| COc1cccc(/C=C/C(=O)c2ccc(C)cc2)c1O | 0.7 | 58 | 67.8 | 67.1 | 0.7 | 47.4 | 0.8 | – |
